Like-named read-outs stand apart in the source and are kept apart here.

Experiment [1] is described as follows: Plasma TG lowering effect in rats after 14 days repeated oral administration, blood taken after 22-hours fasting. Type of experiment: in vivo, Wistar rat. The following applies: single agent alone, rat, pitavastatin calcium 10 mg/kg, K-134 or cilostazol 100 mg/kg. From the text: To test effects of combination administration of the said agents, rats were used for the experiment. […] The vertical axis in FIG. 1 indicates concentration of plasma triglyceride (TG) (mg/dL). Administration groups: control; pitavastatin calcium (referred to as pitavastatin) alone; K-134 alone; cilostazol alone; combination of pitavastatin calcium (referred to as pitavastatin) and K-134; and combination of pitavastatin calcium (referred to as pitavastatin) and cilostazol, are listed from left to right.
Plasma TG lowering effect when pitavastatin calcium was administered in combination with K-134 or cilostazol was measured according to the following method 1-4.
A 7-week-old Wistar rat (CLEA Japan, Inc.) was housed in an animal room where light/dark cycle (light period with room lighting from 7.00 to 19.00), temperature of 23±3° C., and humidity of 55±15% were maintained through the experimental period, and solid feed (CLEA Japan, Inc.) and tap water were consumed freely.
Pitavastatin calcium, K-134 and cilostazol were each suspended in aqueous solution (1.0 mass %) of hydroxypropyl methyl cellulose (Shin-Etsu Chemical Co., Ltd.) and prepared in order that the administration dose was 1 mL/kg. The suspension was stored in a colored bottle and refrigerated at 4° C. Preparation was performed every seven days.
3. Test Method 36 rats were divided into 6 administration groups (each group consisted of 6 samples): (1) control; (2) pitavastatin calcium (10 mg/kg) alone; (3) K-134 (100 mg/kg) alone; (4) cilostazol (100 mg/kg) alone; (5) combination of pitavastatin calcium (10 mg/kg) and K-134 (100 mg/kg); and (6) combination of pitavastatin calcium (10 mg/kg) and cilostazol(100 mg/kg).
Pitavastatin was orally administered once daily at 4.00 pm for 14 days repeatedly, and K-134 or cilostazol was orally administered twice daily at 9.00 am and 4.00 pm for 14 days repeatedly. […] Blood sample was taken from each group after 22-hours fasting following the final administration in the afternoon, and plasma TG was measured. […]

For experiment [2] the following is noted: diabetic rat; cited from earlier work.
The conditions of experiment [3]: normal rat; cited from earlier work.
The conditions of experiment [4]: clinical report, cited from earlier work.

With `O=C1CCc2cc(OCCCCc3nnnn3C3CCCCC3)ccc2N1` [cilostazol], the “hypotriglyceridemic effect in vivo” value in experiment [1] was “little hypotriglyceridemic effect”. The hypotriglyceridemic effect result was “hypotriglyceridemic effect is reported” in experiment [2] and “unstable” in experiment [3]. For the same compound, the results for the TG level result in experiment [4] (4-week administration in a subject) and in experiment [4] (24-week administration) were “lowered” and “return to former value after transient elevation”, respectively.

For the compound `O=C(NCCCOc1ccc2[nH]c(=O)ccc2c1)N(C1CC1)[C@@H]1CCCC[C@H]1O` [K-134, (−)-6-[3[3-cyclopropyl-3-[(1R, 2R)-2-hydroxycyclohexyl]ureido]-propoxy]-2-(1H)-quinolinone], the “hypotriglyceridemic effect in vivo” value in experiment [1] is “little hypotriglyceridemic effect”.

In the case of `O=C(O)C[C@H](O)C[C@H](O)/C=C/c1c(C2CC2)nc2ccccc2c1-c1ccc(F)cc1` [pitavastatin, (3R, 5S, 6E)-7-[2-cycloropyl-4-(4-fluorophenyl)-3-quinolyl]-3,5-dihydroxy-6-heptenoic acid], in experiment [1], the “hypotriglyceridemic effect in vivo” value is listed as “extremely weak”.
